The text below walks through data of publication PMC5698418 (Nature Communications, 2017).

One data set deals with Arc protein. Briefly: Western blot of total Arc protein in primary cortical neurons. Type of data set: cell-based, mouse. The conditions noted are these: BDNF 6 h supplemented with compound. A general note: A western blot detects proteins with antibodies after separation by electrophoresis.
The target of another data set is T1, HDAC5 (Homo sapiens, UniProt Q9UQL6).
T1 construct: purchased BPS Bioscience (San Diego, CA), contract assay service
T1 sequence (Q9UQL6 whole entry): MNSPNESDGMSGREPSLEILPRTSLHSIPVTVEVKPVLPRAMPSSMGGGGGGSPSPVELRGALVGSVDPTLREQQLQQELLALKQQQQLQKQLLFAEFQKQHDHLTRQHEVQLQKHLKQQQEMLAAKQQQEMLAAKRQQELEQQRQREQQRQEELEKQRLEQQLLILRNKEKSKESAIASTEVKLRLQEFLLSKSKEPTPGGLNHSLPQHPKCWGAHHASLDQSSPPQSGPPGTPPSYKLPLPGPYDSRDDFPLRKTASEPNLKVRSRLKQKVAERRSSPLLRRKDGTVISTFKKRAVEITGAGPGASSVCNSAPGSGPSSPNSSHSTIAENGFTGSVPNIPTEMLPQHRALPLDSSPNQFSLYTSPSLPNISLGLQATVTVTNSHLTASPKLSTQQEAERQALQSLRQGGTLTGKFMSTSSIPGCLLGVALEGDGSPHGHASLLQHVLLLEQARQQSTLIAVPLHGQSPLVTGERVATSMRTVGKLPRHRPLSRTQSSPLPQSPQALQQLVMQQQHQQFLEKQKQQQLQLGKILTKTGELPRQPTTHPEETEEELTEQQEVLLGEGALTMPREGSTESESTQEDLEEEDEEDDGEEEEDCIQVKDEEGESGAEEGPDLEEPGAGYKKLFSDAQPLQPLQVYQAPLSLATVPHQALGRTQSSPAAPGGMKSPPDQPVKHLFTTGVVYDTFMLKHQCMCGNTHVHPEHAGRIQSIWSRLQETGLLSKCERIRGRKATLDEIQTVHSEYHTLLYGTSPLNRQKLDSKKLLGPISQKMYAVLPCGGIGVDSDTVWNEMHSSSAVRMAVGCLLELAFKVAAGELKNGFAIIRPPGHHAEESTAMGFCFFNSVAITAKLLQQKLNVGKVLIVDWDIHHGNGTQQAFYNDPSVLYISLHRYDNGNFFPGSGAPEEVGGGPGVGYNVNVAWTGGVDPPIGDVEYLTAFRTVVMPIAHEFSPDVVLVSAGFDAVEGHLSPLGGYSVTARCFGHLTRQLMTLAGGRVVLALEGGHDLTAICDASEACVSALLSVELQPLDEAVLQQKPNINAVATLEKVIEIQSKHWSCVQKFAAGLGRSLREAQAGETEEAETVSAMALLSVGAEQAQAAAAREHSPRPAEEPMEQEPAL
In words: Biochemical HDAC assay (BPS Bioscience), HDAC5. The conditions noted are these: 25 µM.

The target of a further data set is T2, HDAC6 (Homo sapiens, UniProt Q9UBN7).
T2 construct: purchased BPS Bioscience (San Diego, CA), contract assay service
T2 sequence (Q9UBN7 whole entry): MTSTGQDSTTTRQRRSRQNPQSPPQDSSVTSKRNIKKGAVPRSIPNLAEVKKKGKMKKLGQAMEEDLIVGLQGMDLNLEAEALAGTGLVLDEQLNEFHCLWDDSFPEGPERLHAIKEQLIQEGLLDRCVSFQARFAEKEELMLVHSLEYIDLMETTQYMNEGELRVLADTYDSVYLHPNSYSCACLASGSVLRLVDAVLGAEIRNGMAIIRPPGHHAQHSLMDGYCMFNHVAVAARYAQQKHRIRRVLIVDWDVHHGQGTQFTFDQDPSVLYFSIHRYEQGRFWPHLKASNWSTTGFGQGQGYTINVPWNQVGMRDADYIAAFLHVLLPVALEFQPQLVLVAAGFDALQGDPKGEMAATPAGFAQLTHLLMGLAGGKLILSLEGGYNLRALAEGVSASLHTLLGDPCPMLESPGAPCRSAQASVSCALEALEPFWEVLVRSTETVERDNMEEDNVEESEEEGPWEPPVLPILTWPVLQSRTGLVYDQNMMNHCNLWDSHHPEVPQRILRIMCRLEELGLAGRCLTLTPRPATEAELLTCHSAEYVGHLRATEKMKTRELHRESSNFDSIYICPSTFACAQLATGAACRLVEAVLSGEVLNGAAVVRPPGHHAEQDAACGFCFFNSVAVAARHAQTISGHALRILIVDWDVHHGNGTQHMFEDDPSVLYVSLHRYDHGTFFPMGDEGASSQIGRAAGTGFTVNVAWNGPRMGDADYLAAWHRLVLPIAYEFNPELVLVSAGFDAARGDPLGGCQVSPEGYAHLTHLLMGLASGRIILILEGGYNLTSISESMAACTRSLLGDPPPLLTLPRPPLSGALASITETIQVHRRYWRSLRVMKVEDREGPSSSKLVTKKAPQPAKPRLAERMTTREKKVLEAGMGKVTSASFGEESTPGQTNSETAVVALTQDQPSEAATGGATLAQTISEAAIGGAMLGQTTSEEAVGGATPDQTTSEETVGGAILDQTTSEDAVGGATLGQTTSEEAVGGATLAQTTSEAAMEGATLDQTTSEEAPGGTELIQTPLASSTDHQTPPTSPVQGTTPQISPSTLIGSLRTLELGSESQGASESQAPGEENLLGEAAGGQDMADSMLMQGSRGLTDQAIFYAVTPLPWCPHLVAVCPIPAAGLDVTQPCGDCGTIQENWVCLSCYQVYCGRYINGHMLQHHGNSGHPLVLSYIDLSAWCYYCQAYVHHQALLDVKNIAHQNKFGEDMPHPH
In words: Biochemical HDAC assay (BPS Bioscience), HDAC6. As to conditions: 25 µM.

For data set [1], the system named is AMPAR currents in primary cortical neurons. In words: Single-cell electrophysiology of AMPA-mediated mEPSCs. The data set is classed as cell-based, mouse. On the procedure: Primary cortical neurons cultured on glass coverslips were recorded at DIV15 in voltage clamp mode. The external solution was kept at 25 °C and contained 120 mM NaCl, 2 mM KCl, 1 mM MgCl2, 1.5 mM CaCl2, 10 mM 4-(2-hydroxyethyl)-1-piperazineethane-sulfonic acid (HEPES) and 15 mM glucose. […]. Patch recording pipettes (3–6 MΩ) were filled with an internal solution (pH 7.2). The internal solution contained 120 mM K-gluconate, 6 mM NaCl, 1 mM MgCl2, 10 mM HEPES, and 0.2 mM ethylene glycol tetraacetic acid. Data were acquired using an HEKA EPC-10 patch-clamp amplifier interfaced with PatchMaster software and analyzed using FitMaster software (HEKA Elektronik, Holliston, MA) and MiniAnalysis (Synaptosoft, Fort Lee, NJ). Miniature EPSCs were recorded for a minimum of 2 min at a holding potential of −80 mV. Analysis of synaptic event data was performed using MiniAnalysis software with event detection threshold set at maximum root mean squared noise level (5 pA). Recordings of synaptic events were assessed for frequency (Hz) and mean amplitude (pA).

The test system of data set [2] is Arc protein in dentate gyrus. Briefly: Arc immunohistochemistry in dentate gyrus after intraperitoneal injection. The conditions noted are these: 30 mg kg−1 i.p., 3 h. Type of data set: in vivo, mouse. On the procedure:
Male mice (C57BL/6 strain) were received as 6-weeks old and habituated to their home cage as trios for 2 weeks before conducting the experiments. During the habituation time period, mice were kept on a light–dark cycle with minimal disruption and unrestricted access to food and water. On experiment day, mice from the same cage were taken and randomly subjected to intraperitoneal injection of vehicle (25% Kolliphor EL (Sigma-Aldrich, C5135), 10% DMSO) or AK-7 (30 mg kg^−1) solution and immediately placed back in their home cage or transferred to a novel environment. The novel environment consisted of a large cage placed in a different room with new bedding, food, as well as multiple objects like tunnel, running wheel, igloo, and aspen labyrinth that the mice could freely explore. About 3 h after the injection procedure, mice were rapidly anesthetized and killed by decapitation. Finally, brain tissues were harvested and flash frozen in a dry ice/isopentane bath and stored at −80 °C. All experiments were approved by the Animal Care and Use Committee of the Massachusetts General Hospital and carried out according to institutional guidelines.
Coronal sections containing the hippocampus from all animals were cut from the frozen blocks at a thickness of 20 µm with a CM3050 cryostat (Leica, Nussloch, Germany). […]
The following approach was adopted to quantify the number of Arc-positive cell bodies and average acetyl-H3K9 immunostaining pixel intensity in dentate gyrus. First, complete dentate gyrus overlapping grayscale images of DAPI fluorescence and Arc or acetyl-H3K9 immunostaining were collected using a ×20 objective and Nikon Eclipse 90i upright microscope equipped with a motorized stage and image stitching capability. Second, the boundary of the dentate gyrus based on the DAPI fluorescence was determined in each image set with the ImageJ wand tool. Finally, this information was used for image segmentation and quantification of Arc-positive cell bodies or average acetyl-H3K9 immunostaining pixel intensity within each dentate gyrus images. […]

On the set-up of data set [3]: method as in PMID 21370928, PMID 23200855. The conditions noted are these: ref [34],[42]; cited from earlier work.

Molecules are shown by their SMILES.

As to `O=C(Nc1cccc(Br)c1)c1cccc(S(=O)(=O)N2CCCCCC2)c1` [AK-7], the “total Arc protein vs BDNF plus vehicle control (western blot, Arc/β-actin)” value in the data set on Arc protein is given as “significantly more Arc protein”. Moreover, at HDAC5, the “inhibitory activity toward HDAC5” value was “failed to show any inhibitory activity”. On HDAC6, the “inhibitory activity toward HDAC6” value is recorded as “failed to show any inhibitory activity”. Also, the mEPSC amplitude entry in data set [1] (AK-7 and BDNF 6 h vs BDNF alone, DIV15) is “significant decrease in the amplitude of mEPSCs”. The mEPSC frequency entry in data set [1] (untreated, BDNF alone, AK-7 plus BDNF) is “all similar”. For the same compound, in data set [2] (home cage), the “Arc immunofluorescence signal intensity in cell bodies vs vehicle” value is “not statistically different” and the “number of neurons with prominent Arc immunostaining in dentate gyrus vs vehicle” value is reported as “more than eight times”. For the same compound, the “number of Arc immunopositive cell bodies in dentate gyrus vs vehicle” value in data set [2] (novel environment) was “did not led to more Arc immunopositive cell bodies”. In data set [3], the “blood–brain barrier crossing” value is reported as “can efficiently cross the blood–brain barrier”.
